Experimental data from patent US9096580B2 (priority 2012, dated 2015).

Key:
[1] = tested on: genotype 1b HCV replicon in Huh-7 cells; assay: HCV replicon luciferase assay; type: cell-based, HCV genotype 1b; settings: Hepatitis C virus, 72 h; Huh-7 genotype 1b replicon, Renilla luciferase, 3 days incubation
Method: The cell lines used to evaluate compounds consist of a human hepatocyte derived cell line (Huh-7) that constitutively expresses a genotype 1b HCV replicon containing a Renilla luciferase reporter gene. These cells were maintained in Dulbecco's modified Eagle medium (DMEM) containing 10% FBS, 100 U/mL penicillin/streptomycin and 1.0 mg/mL G418.
HCV Replicon Luciferase Assay.
To evaluate compound efficacy, titrated compounds were transferred to sterile 384-well tissue culture treated plates, and the plates were seeded with HCV replicon cells (50 μL at a density of 2.4×10^3 cells/well) in DMEM containing 4% FBS (final DMSO concentration at 0.5%). After 3 days incubation at 37° C., cells were analyzed for Renilla Luciferase activity using the EnduRen substrate (Promega cat #E6485) according to the manufacturer's directions. Briefly, the EnduRen substrate was diluted in DMEM and then added to the plates to a final concentration of 7.5 μM. The plates were incubated for at least 1 h at 37° C. then read on a Viewlux Imager (PerkinElmer) using a luminescence program. The 50% effective concentration (EC50) was calculated using the four-parameter logistic formula noted above.

[2] = target: HCV NS5B RdRp, genotype 1b (Hepatitis C virus genotype 1b (isolate Con1) (HCV), UniProt Q9WMX2); assay: HCV NS5B RdRp enzyme assay; type: biochemical, HCV genotype 1b
Method: HCV NS5B RdRp Cloning, Expression, and Purification.
The cDNA encoding the NS5B protein of HCV, genotype 1b, was cloned into the pET21a expression vector. The protein was expressed with an 18 amino acid C-terminal truncation to enhance the solubility. The E. coli competent cell line BL21(DE3) was used for expression of the protein. Cultures were grown at 37° C. for ˜4 hours until the cultures reached an optical density of 2.0 at 600 nm. The cultures were cooled to 20° C. and induced with 1 mM IPTG. Fresh ampicillin was added to a final concentration of 50 μg/mL and the cells were grown overnight at 20° C.
The lysis buffer consisted of 20 mM Tris-HCl, pH 7.4, 500 mM NaCl, 0.5% triton X-100, 1 mM DTT, 1 mM EDTA, 20% glycerol, 0.5 mg/mL lysozyme, 10 mM MgCl2, 15 ug/mL deoxyribonuclease I, and Complete TM protease inhibitor tablets (Roche). After addition of the lysis buffer, frozen cell pellets were resuspended using a tissue homogenizer. […]
After incubating for at least 15 minutes, plates were read on an Amersham LEADseeker multimodality imaging system.
IC50 values for compounds were determined using ten different [I]. IC50 values were calculated from the inhibition using the four-parameter logistic formula y=A+((B−A)/(1+((C/x)^D))), where A and B denote minimal and maximal % inhibition, respectively, C is the IC50, D is hill slope and x represents compound concentration.

[3] = tested on: HCV; settings: combination therapy; cited from earlier work
[4] = tested on: HCV; settings: cited from earlier work

Sequence of HCV NS5B RdRp, genotype 1b (Q9WMX2 2420-2992): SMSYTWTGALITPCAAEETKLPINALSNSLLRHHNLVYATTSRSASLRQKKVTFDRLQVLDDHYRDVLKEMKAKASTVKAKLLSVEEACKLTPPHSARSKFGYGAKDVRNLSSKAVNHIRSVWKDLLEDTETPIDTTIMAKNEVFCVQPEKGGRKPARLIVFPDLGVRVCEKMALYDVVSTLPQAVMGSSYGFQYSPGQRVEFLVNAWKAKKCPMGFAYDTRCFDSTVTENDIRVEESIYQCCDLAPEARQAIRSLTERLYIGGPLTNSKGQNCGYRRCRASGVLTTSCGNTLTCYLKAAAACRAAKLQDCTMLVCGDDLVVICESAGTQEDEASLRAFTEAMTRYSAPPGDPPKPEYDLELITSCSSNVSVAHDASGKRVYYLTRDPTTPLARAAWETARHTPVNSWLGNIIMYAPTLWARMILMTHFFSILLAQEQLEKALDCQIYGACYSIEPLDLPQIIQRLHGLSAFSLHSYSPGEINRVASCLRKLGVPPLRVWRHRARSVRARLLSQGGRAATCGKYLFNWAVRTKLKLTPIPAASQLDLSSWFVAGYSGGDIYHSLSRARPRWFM

Compound	EC50 [1]	also measured
CNC(=O)c1c(-c2ccc(F)cc2)oc2ccc(-c3cc(C(=O)NC4(c5ncccn5)CNC4)c(OC)cc3C)c(F)c12	900 nM	
CNC(=O)c1c(-c2ccc(F)cc2)oc2ccc(-c3cc(C(=O)NC4(c5ncccn5)CN(C)C4)ccc3C)c(F)c12	2460 nM	IC50 [2]: 780 nM
alpha-interferon and ribavirin		sustained efficacy, share of patients [3]: 40%
CNC(=O)c1c(-c2ccc(F)cc2)oc2ccc(-c3cc(C(=O)NC4(c5ncccn5)CN(C)C4)c(OC)cc3C)c(F)c12	1190 nM	
CNC(=O)c1c(-c2ccc(F)cc2)oc2ccc(-c3cc(C(=O)NC4(c5ncccn5)CNC4)ccc3C)c(F)c12 [4-fluoro-2-(4-fluorophenyl)-N-methyl-5-(2-methyl-5-(3-(pyrimidin-2-yl)azetidin-3-ylcarbamoyl)phenyl)benzofuran-3-carboxamide]	4330 nM	
CNC(=O)c1c(-c2ccc(F)cc2)oc2ccc(-c3cc(C(=O)NC4(c5ncccn5)CNC4)cc(F)c3C)c(F)c12	390 nM	IC50 [2]: 330 nM
CNC(=O)c1c(-c2ccc(F)cc2)oc2ccc(-c3cc(C(=O)NC4(c5ncccn5)CN(C)C4)cc(F)c3C)c(F)c12 [4-fluoro-5-(3-fluoro-2-methyl-5-(1-methyl-3-(pyrimidin-2-yl)azetidin-3-ylcarbamoyl)phenyl)-2-(4-fluorophenyl)-N-methylbenzofuran-3-carboxamide]	820 nM	
CNC(=O)c1c(-c2ccc(F)cc2)oc2cc(N(CCO)S(C)(=O)=O)c(C3CC3)cc12 [HCV-796]		toxicity during extended dosing ([4]; extended dosing of the combination regimens with interferon and ribavirin): hepatic toxicity; HCV RNA levels in patients ([4]; patients, single agent: transient decrease then rebound): reduce HCV RNA levels
